Reference: ChEMBL document CHEMBL1201862, “PubChem BioAssay data set” (2004)
Active and inactive are the calls of the source.

Assays:
[1] = tested on: Vero; test: cells; type: functional; details: Chlorocebus sabaeus
[2] = tested on: Vero; test: cells; type: functional, cell-based; details: Chlorocebus sabaeus
[3] = target: Cytochrome P450 2C9 (Homo sapiens, UniProt P11712)
[4] = target: Cytochrome P450 3A4 (Homo sapiens, UniProt P08684);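 further: CYP3A4 tested as one member of a cytochrome P450 panel screen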
Cytochrome P450 3A4, sequence (P08684 whole entry): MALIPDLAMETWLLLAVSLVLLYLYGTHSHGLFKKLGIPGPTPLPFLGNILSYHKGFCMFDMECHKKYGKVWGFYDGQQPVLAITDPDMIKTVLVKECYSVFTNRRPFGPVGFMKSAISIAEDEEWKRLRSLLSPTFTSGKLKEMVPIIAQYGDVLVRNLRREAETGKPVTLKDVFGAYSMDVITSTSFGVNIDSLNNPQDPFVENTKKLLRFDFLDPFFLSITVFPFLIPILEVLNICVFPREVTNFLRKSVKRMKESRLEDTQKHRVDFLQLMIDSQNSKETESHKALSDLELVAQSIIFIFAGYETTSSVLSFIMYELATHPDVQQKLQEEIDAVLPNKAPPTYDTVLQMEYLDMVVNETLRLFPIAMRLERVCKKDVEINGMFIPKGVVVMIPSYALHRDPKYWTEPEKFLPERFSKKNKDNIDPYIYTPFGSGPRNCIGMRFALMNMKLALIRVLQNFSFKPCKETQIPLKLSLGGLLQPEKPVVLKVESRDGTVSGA

[5] = target: T1, Cytochrome P450 2D6 (Homo sapiens, UniProt P10635);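 further: CYP2D6 member of a cytochrome P450 panel assay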
T1 sequence (P10635 whole entry): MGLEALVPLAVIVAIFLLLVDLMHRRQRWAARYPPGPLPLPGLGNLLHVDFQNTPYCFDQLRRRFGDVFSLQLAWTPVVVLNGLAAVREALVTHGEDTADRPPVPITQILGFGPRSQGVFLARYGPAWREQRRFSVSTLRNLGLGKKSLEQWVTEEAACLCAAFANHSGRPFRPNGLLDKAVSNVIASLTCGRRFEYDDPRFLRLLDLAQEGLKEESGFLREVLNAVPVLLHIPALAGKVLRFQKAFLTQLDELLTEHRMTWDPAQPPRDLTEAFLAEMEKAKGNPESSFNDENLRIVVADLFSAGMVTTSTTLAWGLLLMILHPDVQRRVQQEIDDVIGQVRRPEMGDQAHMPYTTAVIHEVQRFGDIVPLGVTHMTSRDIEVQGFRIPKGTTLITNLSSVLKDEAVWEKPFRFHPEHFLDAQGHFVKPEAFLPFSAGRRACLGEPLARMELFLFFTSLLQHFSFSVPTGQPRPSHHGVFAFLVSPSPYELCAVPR

[6] = tested on: A-375; test: MITF: Counter assay: A375 proliferation Measured in Cell-Based System Using Plate Reader - 2084-03_Inhibitor_Dose_DryPowder_Activity. [Related pubchem assays (depositor defined):AID488944]; type: functional; details: Homo sapiens
[7] = tested on: A-375; test: proliferation inhibition in MITF-low A375 cells – cell-based, cherry-pick samples, set 2, counter-screen for MITF modulator project, dose response (AID 540335); type: functional; details: Homo sapiens
[8] = target: Keap1/Nrf2 (Homo sapiens, UniProt Q14145); test: disruptors of Keap1 binding to Nrf2 peptide – biochemical, fluorescence polarization, cherry-picked samples, dose response (AID 588683)
Keap1/Nrf2, sequence (Q16236 whole entry, the tested form may be a part): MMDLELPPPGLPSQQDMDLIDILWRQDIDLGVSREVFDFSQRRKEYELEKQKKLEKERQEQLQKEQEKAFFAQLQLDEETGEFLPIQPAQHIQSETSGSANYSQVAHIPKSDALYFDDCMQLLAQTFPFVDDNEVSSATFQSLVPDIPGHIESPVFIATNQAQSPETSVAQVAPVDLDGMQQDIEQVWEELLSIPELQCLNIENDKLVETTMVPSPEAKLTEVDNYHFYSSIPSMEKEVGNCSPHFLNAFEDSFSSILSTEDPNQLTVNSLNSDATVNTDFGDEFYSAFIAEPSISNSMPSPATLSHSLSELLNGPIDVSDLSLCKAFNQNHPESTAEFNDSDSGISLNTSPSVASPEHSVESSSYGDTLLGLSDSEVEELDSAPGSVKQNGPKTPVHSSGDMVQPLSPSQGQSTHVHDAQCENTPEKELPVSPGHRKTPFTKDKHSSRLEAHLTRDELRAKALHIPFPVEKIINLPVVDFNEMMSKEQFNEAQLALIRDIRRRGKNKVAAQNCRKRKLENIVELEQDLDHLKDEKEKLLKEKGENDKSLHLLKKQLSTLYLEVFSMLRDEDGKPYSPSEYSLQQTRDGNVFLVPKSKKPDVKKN
Keap1/Nrf2, sequence (Q14145 whole entry, the tested form may be a part): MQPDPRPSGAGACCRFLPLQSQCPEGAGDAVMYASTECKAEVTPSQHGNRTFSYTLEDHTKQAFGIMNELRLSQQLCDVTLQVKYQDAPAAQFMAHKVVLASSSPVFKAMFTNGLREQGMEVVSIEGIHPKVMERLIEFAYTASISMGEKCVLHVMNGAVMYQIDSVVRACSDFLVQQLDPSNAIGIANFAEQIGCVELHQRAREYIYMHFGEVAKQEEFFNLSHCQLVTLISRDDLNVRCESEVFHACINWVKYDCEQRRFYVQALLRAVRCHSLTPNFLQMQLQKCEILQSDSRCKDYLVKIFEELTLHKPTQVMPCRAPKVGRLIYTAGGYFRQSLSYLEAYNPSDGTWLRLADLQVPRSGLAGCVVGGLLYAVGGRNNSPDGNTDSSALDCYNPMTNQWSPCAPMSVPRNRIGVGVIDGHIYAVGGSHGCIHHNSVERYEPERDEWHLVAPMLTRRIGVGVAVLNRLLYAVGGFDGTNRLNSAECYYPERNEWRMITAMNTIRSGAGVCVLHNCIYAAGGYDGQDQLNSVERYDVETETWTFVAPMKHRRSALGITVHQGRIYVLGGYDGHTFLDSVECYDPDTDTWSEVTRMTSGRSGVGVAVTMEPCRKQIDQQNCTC

[9] = target: T2, RNA-binding protein pos-1 (Caenorhabditis elegans, UniProt G5EF15); test: disruptors of C. elegans POS-1 RNA interaction – biochemical, fluorescence polarization, dose response (AID 1964);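 further: purified POS-1 fused to maltose binding protein made in E. coli; potency of compounds blocking POS-1 binding to fluorescent RNA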
T2 sequence (G5EF15 whole entry): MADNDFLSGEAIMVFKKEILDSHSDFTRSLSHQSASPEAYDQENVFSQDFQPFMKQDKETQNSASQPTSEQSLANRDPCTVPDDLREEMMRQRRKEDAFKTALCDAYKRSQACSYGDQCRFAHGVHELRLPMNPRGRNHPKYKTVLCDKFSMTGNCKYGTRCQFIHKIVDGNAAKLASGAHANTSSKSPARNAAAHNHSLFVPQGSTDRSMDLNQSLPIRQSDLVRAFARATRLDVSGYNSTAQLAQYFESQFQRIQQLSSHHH

[10] = target: T3, Zinc finger protein mex-5 (Caenorhabditis elegans, UniProt Q9XUB2); test: potency of MEX-5 RNA-binding blockers – biochemical, C. elegans, fluorescence polarization, dose response (AID 1960)
T3 sequence (Q9XUB2 whole entry): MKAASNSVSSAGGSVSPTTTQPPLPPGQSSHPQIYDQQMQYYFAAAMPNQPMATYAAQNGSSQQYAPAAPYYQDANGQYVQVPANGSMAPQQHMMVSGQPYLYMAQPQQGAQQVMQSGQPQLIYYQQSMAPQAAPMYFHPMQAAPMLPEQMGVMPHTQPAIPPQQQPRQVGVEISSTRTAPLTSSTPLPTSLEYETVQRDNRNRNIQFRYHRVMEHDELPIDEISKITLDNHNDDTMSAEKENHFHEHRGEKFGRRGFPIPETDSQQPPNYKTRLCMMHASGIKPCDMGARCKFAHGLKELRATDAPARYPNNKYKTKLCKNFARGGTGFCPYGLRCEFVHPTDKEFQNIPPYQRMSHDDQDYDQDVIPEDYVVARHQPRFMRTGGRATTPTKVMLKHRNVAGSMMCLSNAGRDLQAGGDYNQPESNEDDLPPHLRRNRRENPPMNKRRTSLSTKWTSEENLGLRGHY

[11] = Luminescence Cell-Based Dose Response HTS to Identify Activators of Luciferase Translation or Activity in H4 […] Cells. [Related pubchem assays: 1829 (Project Summary), 1814 (Primary HTS)]; type: functional
[12] = tested on: H4; test: Luminescence Cell-Based Dose Response HTS to Identify Activators of 5'UTR Stem-Loop Driven Prion Protein mRNA Translation in H4 Neuroglioblastoma Cells. [Related pubchem assays: 1829 (Project Summary), 1814 (Primary HTS)]; type: functional; details: Homo sapiens
[13] = Luminescence Cell-Based Dose Response to Identify Activators of Luciferase Translation or Activity in H4-C Neuroglioblastoma Cells. [Related pubchem assays: 1829 (Project Summary), 1814 (Primary HTS)]; type: functional
[14] = tested on: HeLa; test: ATP-based viability loss in HeLa cells – cell-based, CellTiter-Glo luminescence, cherry-pick samples, cytotoxicity control for MITF activator project, dose response (AID 540259); type: functional; details: Homo sapiens
[15] = Luminescence Cell-Based Dose Confirmation to Identify Activators of 5'UTR Stem-Loop Driven Alpha-Synuclein mRNA Translation in H4 Neuroglioblastoma Cells. [Related pubchem assays: 1829 (Project Summary), 1814 (Primary HTS)]; type: functional
[16] = Luminescence Cell-Based Dose Response to Identify Activators of 5'UTR Stem-Loop Driven Prion Protein mRNA Translation in H4-C Neuroglioblastoma Cells. [Related pubchem assays: 1829 (Project Summary), 1814 (Primary HTS)]; type: functional
[17] = target: T4, Nuclear receptor subfamily 0 group B member 1 (Homo sapiens, UniProt P51843); test: Luminescence-based cell-based high throughput dose response assay for inhibitors of the orphan nuclear receptor subfamily 0, group B, member 1 (DAX1; NR0B1). [Related pubchem assays (depositor defined):AID504766, AID504790]; type: functional
T4 sequence (P51843 whole entry): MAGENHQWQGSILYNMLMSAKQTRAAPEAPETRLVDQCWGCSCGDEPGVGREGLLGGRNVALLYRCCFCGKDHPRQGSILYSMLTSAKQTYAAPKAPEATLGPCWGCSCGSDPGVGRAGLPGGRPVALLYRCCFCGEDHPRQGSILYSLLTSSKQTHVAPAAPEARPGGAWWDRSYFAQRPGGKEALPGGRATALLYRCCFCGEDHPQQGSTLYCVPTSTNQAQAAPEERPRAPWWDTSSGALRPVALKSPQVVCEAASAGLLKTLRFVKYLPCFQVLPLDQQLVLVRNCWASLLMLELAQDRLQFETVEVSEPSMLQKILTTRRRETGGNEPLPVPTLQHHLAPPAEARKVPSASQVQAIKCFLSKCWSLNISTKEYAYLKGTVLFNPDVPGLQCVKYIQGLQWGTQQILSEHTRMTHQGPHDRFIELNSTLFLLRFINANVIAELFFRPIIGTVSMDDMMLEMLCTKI

[18] = tested on: HEK293; test: cells; type: functional, cell-based; details: Homo sapiens
[19] = Luminescence Cell-Based Dose Confirmation HTS to Identify Activators of 5'UTR Stem-Loop Driven Alpha-Synuclein mRNA Translation in H4 Neuroglioblastoma Cells. [Related pubchem assays: 1829 (Project Summary), 1814 (Primary HTS)]; type: functional
[20] = target: T1, Cytochrome P450 2D6; remark: listed apart in the source
[21] = target: T5, Cytochrome P450 1A2 (Homo sapiens, UniProt P05177);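 further: PubChem cytochrome P450 panel assay, CYP1A2 panel member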
T5 sequence (P05177 whole entry): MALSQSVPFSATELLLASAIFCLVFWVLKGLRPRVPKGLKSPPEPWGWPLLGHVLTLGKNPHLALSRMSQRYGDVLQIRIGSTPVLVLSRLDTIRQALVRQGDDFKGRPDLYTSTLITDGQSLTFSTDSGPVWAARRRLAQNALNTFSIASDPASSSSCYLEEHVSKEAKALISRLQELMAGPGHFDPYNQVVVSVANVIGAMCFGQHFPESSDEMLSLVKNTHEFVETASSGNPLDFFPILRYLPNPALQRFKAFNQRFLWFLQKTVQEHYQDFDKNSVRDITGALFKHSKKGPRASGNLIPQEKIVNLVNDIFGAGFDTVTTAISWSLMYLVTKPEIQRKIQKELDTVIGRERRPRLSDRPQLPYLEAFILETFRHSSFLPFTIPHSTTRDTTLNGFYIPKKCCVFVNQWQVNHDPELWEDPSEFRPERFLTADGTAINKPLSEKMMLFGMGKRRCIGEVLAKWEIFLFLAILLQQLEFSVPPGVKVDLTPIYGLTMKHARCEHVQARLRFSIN

[22] = Luminescence Cell-Based Dose Response HTS to Identify Inhibitors of 5'UTR Stem-Loop Driven Prion Protein mRNA Translation in H4 Neuroglioblastoma Cells. [Related pubchem assays: 1827 (Project Summary), 1813 (Primary HTS)]; type: functional
[23] = luciferase reporter signal suppression in cells – H4 neuroglioma cells, luminescence, dose response (AID 1990); type: functional, cell-based
[24] = alpha-synuclein stem-loop luciferase translation blockers – H4 neuroglioma cells, luminescence, confirmation (AID 1988); type: functional, cell-based
[25] = target: Cytochrome P450 2C19 (Homo sapiens, UniProt P33261); test: Cytochrome panel assay with activity outcomes. Panel member name: p450-cyp2c19 Compounds with AC50 equal or less than 10 uM are considered active; type: functional; details: read-out: AC50
Cytochrome P450 2C19, sequence (P33261 whole entry): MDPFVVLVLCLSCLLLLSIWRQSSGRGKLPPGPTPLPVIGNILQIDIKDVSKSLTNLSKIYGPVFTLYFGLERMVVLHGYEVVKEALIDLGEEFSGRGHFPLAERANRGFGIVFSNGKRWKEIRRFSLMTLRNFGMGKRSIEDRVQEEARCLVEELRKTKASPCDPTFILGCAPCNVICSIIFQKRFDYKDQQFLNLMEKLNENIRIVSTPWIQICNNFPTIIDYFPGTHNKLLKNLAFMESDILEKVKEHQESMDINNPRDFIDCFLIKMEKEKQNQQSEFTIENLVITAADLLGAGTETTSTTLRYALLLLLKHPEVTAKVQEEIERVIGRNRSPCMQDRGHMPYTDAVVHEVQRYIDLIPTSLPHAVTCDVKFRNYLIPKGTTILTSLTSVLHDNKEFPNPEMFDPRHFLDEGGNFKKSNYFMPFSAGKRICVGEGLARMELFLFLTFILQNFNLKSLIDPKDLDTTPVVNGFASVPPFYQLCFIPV

[26] = viability of uninfected HEp-2 cells – cell-based, HTS, cytotoxicity control for RSV inhibitor project, dose response (AID 2410); type: functional; details: human respiratory syncytial virus
[27] = HCT116 cell viability decrease, GSK3B pretreatment – CellTiter-Glo, IC50, dose response (AID 1117339); type: functional; details: HCT-116
[28] = cytotoxicity toward HCT116 cells – cell-based, CellTiter-Glo luminescence, IC50, dose response (AID 1117332); type: functional; details: HCT-116
[29] = RKO cell viability reduction, dose response, CellTiter-Glo luminescence (AID 1117322); type: functional
[30] = Reduced DLD-1 viability, concentration-response, CellTiter-Glo luminescence (AID 1117352); type: functional
[31] = CellTiter-Glo luminescence survival assay, SW480 colon tumor line, concentration-response curve, half-maximal inhibitory concentration (AID 1117338); type: functional
[32] = cytotoxicity toward HT-29 cells – cell-based, CellTiter-Glo luminescence, IC50, dose response (AID 1117330); type: functional
[33] = rise of 2N DNA cells, HeLa – IC50, dose response (AID 1117349); type: functional, cell-based
[34] = SNU-C1 cell viability reduction, dose response, CellTiter-Glo luminescence (AID 1117323); type: functional, cell-based
[35] = rise of 4N DNA cells, HeLa – IC50, dose response (AID 1117351); type: functional, cell-based

Cytochrome P450 2C9, sequence (P11712 whole entry): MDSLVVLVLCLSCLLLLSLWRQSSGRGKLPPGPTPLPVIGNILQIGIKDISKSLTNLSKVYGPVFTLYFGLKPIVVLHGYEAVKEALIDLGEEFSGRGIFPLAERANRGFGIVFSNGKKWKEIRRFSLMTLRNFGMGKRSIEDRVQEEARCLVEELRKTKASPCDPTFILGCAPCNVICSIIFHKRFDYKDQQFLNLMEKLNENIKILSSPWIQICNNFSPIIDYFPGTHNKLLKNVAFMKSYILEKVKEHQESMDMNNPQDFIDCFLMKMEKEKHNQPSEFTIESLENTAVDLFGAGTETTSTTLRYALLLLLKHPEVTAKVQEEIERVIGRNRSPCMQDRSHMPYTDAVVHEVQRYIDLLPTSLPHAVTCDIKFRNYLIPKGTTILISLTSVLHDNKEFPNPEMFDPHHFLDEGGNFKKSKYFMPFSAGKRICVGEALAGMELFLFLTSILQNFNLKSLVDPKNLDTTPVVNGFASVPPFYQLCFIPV

With `C#CCn1c(S(=O)(=O)Cc2ccc(C)cc2)nc(-c2ccccc2)c1-c1ccccc1` the CC50 [1] was 22.6 µM (active) and the IC50 [2] was 3.84 µM (active).

For `CCOC(=O)C1C(=O)C=C(/C=C/c2ccccc2)CC1c1ccc(Cl)cc1` (centres undefined), the AC50 [3] was 1.41 µM (inconclusive), the AC50 [4] was “inconclusive” and the AC50 [5] was 7.08 µM (inconclusive).

For `CCOC(=O)c1ccc(NC(=O)CC2SCCNC2=O)cc1` (centres undefined), the AC50 [6] was > 35 µM (active) and the AC50 [7] was > 35 µM (active).

For `CC(C)c1nnc(N2C(=O)C(O)=C(C(=O)c3cccs3)C2c2ccccc2)s1` (centres undefined), the AC50 [8] was 13.4 µM (active), the EC50 [9] was 33.9 µM (inconclusive) and the EC50 [10] was 4.38 µM (inconclusive).

For `Cc1ccc(NC(=O)Nc2ccc3oc(C)nc3c2)cc1`, the EC50 [11] was < 0.1 µM (active), the EC50 [12] was > 120 µM (not active) and the EC50 [13] was 0.346 µM (active). The AC50 [14] was 104 µM (active), the EC50 [15] was 0.216 µM (active) and the EC50 [16] was 0.192 µM (active).

With `COc1ccc(C(=O)C[n+]2ccc3ccccc3c2C)cc1` the EC50 [11] was 0.235 µM (active), the EC50 [12] was > 120 µM (not active) and the IC50 [17] was > 67.5 µM (inactive). The IC50 [18] was > 67.5 µM (inactive), the EC50 [19] was < 0.1 µM (active) and the EC50 [13] was 0.402 µM (active). For the same compound, the EC50 [15] was 0.375 µM (active) and the EC50 [16] was 0.646 µM (active).

In the case of `CC(C)OC(=O)/C(=C\C=C\c1ccccc1)NC(=O)c1ccccc1`, the AC50 [3] was 2.82 µM (inconclusive), the AC50 [20] was “inconclusive” and the AC50 [21] was 3.55 µM (inconclusive).

In the case of `Cc1cc(C)c(-c2csc(NC(=O)/C=C/c3cccs3)n2)c(C)c1`, the EC50 [22] was 21.5 µM (active), the EC50 [23] was > 120 µM (not active) and the EC50 [24] was 9.05 µM (active). For the same compound, the CC50 [1] was > 25 µM (active) and the IC50 [2] was 23.2 µM (active).

In the case of `O=C(CSC(=S)N1CCCCC1)c1c(F)cccc1F`, the IC50 [17] was > 67.5 µM (inactive) and the IC50 [18] was > 67.5 µM (inactive).

In the case of `S=C(Nc1ccc(Cl)cc1)NC1CC2CCCC(C1)N2C1CCCC1` (centres undefined), the AC50 [25] was 22.4 µM (inconclusive) and the AC50 [4] was “inconclusive”.

With `C/C(=N\OC(=O)c1cccc(C(F)(F)F)c1)c1sc(-c2ccccc2)nc1C` the CC50 [26] was 30.8 µM (active) and the AC50 [14] was 174 µM (active).

In the case of `COc1cccc2c1C(=O)c1c(O)c3c(c(O)c1C2=O)C[C@@](O)(C(C)=O)C[C@@H]3O[C@H]1C[C@H](N)[C@H](O)[C@H](C)O1` [DAUNORUBICIN], the IC50 [27] was 0.0554 µM (active), the IC50 [28] was 0.0509 µM (active) and the IC50 [29] was 0.118 µM (active). For the same compound, the IC50 [30] was 0.188 µM (active), the IC50 [31] was 1.47 µM (active) and the AC50 [20] was “inactive”. The IC50 [32] was 0.648 µM (active), the IC50 [33] was 0.0102 µM (active) and the IC50 [34] was 0.338 µM (active). The IC50 [35] was 0.0464 µM (active) and the AC50 [21] was 31.6 µM (inconclusive).
